US20070049588A1, “ATM INHIBITOR” (priority 2005, published 2007)
Like-named read-outs stand apart in the source and are kept apart here.

Legend:
[1] = Oral bioavailability in mice; type: in vivo; conditions: mouse, plasma, 10 mg/kg oral vs intravenous, AUC ratio
Method: In order to assess the oral bioavailability of compounds (Ia)-(IV), the compounds were dissolved to 5 mg/ml in an aqueous formulation which was then dosed orally and intravenously at 10 mg/kg to discrete groups of mice. For the intravenously dosed animals, blood samples were taken (three mice per time point) at 3, 5, 15, 30, 60, 120, 240 and 360 minutes post-dose. For the orally dosed animals, blood samples were taken (three mice per time point) at 5, 15, 30, 60, 120, 240 and 360 minutes post-dose. The plasma concentration of each compound at all time points, for both dose routes, was determined by HPLC-MS/MS analysis. The details of the HPLC-MS/MS method are as follows.
Sample was extracted for analysis by homogenisation of tissue, if required, vortex mixing and then centrifugation to produce a compound-containing supernatant that can be assayed by HPLC-MS/MS. Quantitation was achieved by comparison to a serial dilution of a known amount of parent compound. The chromatographic and MS conditions used are given below.
MS conditions were determined by infusing compound dissolved in 50:50 acetonitrile:formic acid (0.01%).
Total exposure as indicated by area under the curve (AUC) was calculated. By definition, intravenous delivery results in 100% bioavailability and the comparative bioavailability obtained through oral delivery is calculated by: [formula]

[2] = Tissue pharmacokinetics, plasma and tumour concentrations; type: in vivo; conditions: mouse, ip, mice, 50 mg/kg i.p., mean; for concentration at 1 h: 1 hr post-dose; for concentration at 4 h: 4 hr post-dose
Method: In order to assess tissue pharmacokinetics, a single intraperitoneal (i.p.) dose of 50 mg/kg of each compound was administered to discrete groups of mice. Blood and tumour samples were taken (three mice per time point) at 1 and 4 hours post-dose. The concentration of each compound in both matrices at both time points was determined by HPLC-MS/MS analysis using the method described above for Example 6. The mean concentrations found are presented below.

[3] = Maximum single tolerable intravenous dose in rats; conditions: both sexes, rat, in vivo, highest dose without clinical signs in 4 animals, read-out: Rat MTD (i.v.)
Method: (§1) The maximum single tolerable intravenous dose which could be administered to rats and mice was determined. Escalating doses of each compound were given to discrete, naive pairs of animals (1 male and 1 female) until a dose that elicited clinical signs, was reached. Then for each compound, two further animals were then treated with the highest dose that had not produced any clinical signs. […]

[4] = Maximum single tolerable intravenous dose in mice; conditions: both sexes, mouse, in vivo, highest dose without clinical signs in 4 animals, read-out: Mouse MTD (i.v.)
Method: as §1

[5] = Clonogenic survival assays with chemotherapeutics; type: cell-based; conditions: in vitro clonogenic survival assays
HIV = experiment: HIV-based LUCIA assay, repression of retroviral infection; type: cell-based; conditions: Human immunodeficiency virus 1
Method: The ability of compound (Ia) to repress retroviral infections was assessed using an HIV-based LUCIA assay. The LUCIA assay was carried out as described in WO 03/070726 (see pages 125-126 therein), which is incorporated herein by reference.

[6] = plasma, read-out: Plasma concentration
[7] = tumour, read-out: Tumour concentration

SMILES: CN1CCN(CCC(=O)Nc2ccc3c(c2)Cc2cccc(-c4cc(=O)cc(N5CCOCC5)o4)c2S3)CC1 [Compound (II)]
- bioavailability [1]: 0%
- concentration at 1 h [2, 6]: 3030 ng/mL
- concentration at 4 h [2, 6]: 137 ng/mL
- concentration at 1 h [2, 7]: 2810 ng/g
- concentration at 4 h [2, 7]: 1060 ng/g
- MTD [3]: 40 mg/kg
- MTD [4]: < 40 mg/kg

SMILES: CN1CCN(CCC(=O)Nc2ccc3c(c2)Sc2cccc(-c4cc(=O)cc(N5CCOCC5)o4)c2S3)CC1 [Compound (III)]
- bioavailability [1]: 0%
- concentration at 1 h [2, 6]: 2030 ng/mL
- concentration at 4 h [2, 6]: 626 ng/mL
- concentration at 1 h [2, 7]: 1730 ng/g
- concentration at 4 h [2, 7]: 2190 ng/g
- MTD [3]: 75 mg/kg
- MTD [4]: < 40 mg/kg

SMILES: CC(C)N1CCN(CCC(=O)Nc2ccc3c(c2)Sc2cccc(-c4cc(=O)cc(N5CCOCC5)o4)c2S3)CC1 [Compound (IV)]
- bioavailability [1]: 0%
- concentration at 1 h [2, 6]: 1920 ng/mL
- concentration at 4 h [2, 6]: 383 ng/mL
- concentration at 1 h [2, 7]: 899 ng/g
- concentration at 4 h [2, 7]: 1090 ng/g
- MTD [4]: < 40 mg/kg

SMILES: C[C@@H]1CN(CC(=O)Nc2ccc3c(c2)Cc2cccc(-c4cc(=O)cc(N5CCOCC5)o4)c2S3)C[C@H](C)O1 [Compound (Ia), 2-((2R,6S)-2,6-Dimethyl-morpholin-4-yl)-N-[5-(6-morpholin-4-yl-4-oxo-4H-pyran-2-yl)-9H-thioxanthen-2-yl]-acetamide]
- Potentiation of cytotoxic effects of etoposide, camptothecin and doxorubicin [5]: potentiate the cytotoxic effects
- IC50 (HIV): 1300 nM
- bioavailability [1]: 37%
- concentration at 1 h [2, 6]: 31800 ng/mL
- concentration at 4 h [2, 6]: 5960 ng/mL
- concentration at 1 h [2, 7]: 19700 ng/g
- concentration at 4 h [2, 7]: 4140 ng/g
- MTD [3]: > 100 mg/kg
- MTD [4]: 75 mg/kg
